Test results published in patent US20100210536A1, “USE OF LEPTIN (22-56 ) AS A THERAPEUTIC AGENT” (priority 2007, published 2010).
Where no end group is shown, it is not given here.

Assays:
MRC-5 cells = assay: Cytotoxicity in MRC-5 cells (CellTiter 96 cell viability); settings: 6 days incubation
Pseudomonas aeruginosa = type: cell-based; settings: 5 micrograms per ml
Streptococcus pneumoniae = type: cell-based; settings: 5 micrograms per ml
MRSA = settings: 5 micrograms per ml
in vitro [1] = settings: human
in vitro [2] = settings: human, HepG2-2.2.15 cells
in vitro [3] = settings: human, MRC-5 cells

Compound	% Cell viability (MRC-5 cells) [%]	% inhibition (Pseudomonas aeruginosa) [%]	% inhibition (Streptococcus pneumoniae) [%]	% inhibition (MRSA) [%]	viability at 10 micrograms per ml (in vitro [1]) [%]	viability at 144 h, 10 micrograms per ml (in vitro [2]) [%]	viability at 144 h (in vitro [3]) [%]
Nc1nc(O)c2ncn(COC(CO)CO)c2n1 [Ganciclovir]	100	–	–	–	–	–	–
VPIQKVQDDTKTLIKTIVTRINDISHTQSVSSKQK-OH [Leptin (22-56)]	–	0.0	0.0	0.0	93.5	100	100
